According to patent US4521417A, “Geranylgeranylacetamide compounds having a piperazine ring, salts thereof, pharmaceutical compositions containing said compounds, and method of treating ulcers in mammals” (Nihon Iyakuhin Kogyo Co., Ltd., priority 1982, dated 1985):
Structures can show the parent of a compound that is named as a salt.

Legend:
ulcer = assay: Pharmacological Test 1: pylorus-ligation ulcer in fasted rats, drug intraduodenal, ulcer area after 8 h; assay type: in vivo, STD Wistar-strain male rats; details: Rattus norvegicus, pylorus ligated, n=15 rats, read-out: Percent inhibition (ulcer area)
Experimental: (§1) Pharmacological tests were conducted on the above-mentioned known anti-ulcerogenic agents, the typical known anti-ulcerogenic compound of formula (A)-1 given hereinabove, and the compounds of formula (I) in accordance with this invention in order to examine their anti-ulcerogenic activities.
(§2) In these pharmacological tests, the numbers attached to the compounds of this invention correspond to the numbers of Production Examples given hereinbelow.
STD Wistar-strain male rats (body weight 170 to 200 g) were caused to fast for 72 hours, and then under ether anesthesia, were incised at the abdomen. The pylorus portion was ligated, and each of the test drugs was intraduodenally administered. The abdomen was closed and sewn. Eight hours later, the abdomen was cut open, and the stomach was taken out. The area of a generated ulcer was measured by a stereoscopic microscope, and the percent inhibition was calculated by comparison from a control to which the drug was not administered.

[1] = test system: ulcers generated in the stomach body; assay: Pharmacological Test 2: water-immersion stress ulcer in rats, drug oral, total ulcer length; assay type: in vivo, STD Wistar-strain male rats; details: Rattus norvegicus, 1 hour before water immersion stress at 23±1° C., 18 hours, n=10 rats, read-out: Percent inhibition (total length of ulcers)
Experimental: as §1, §2
STD Wistar-strain male rats (body weight 170 to 200 g) were caused to fast for 30 hours, and put in a wire cage. They were immersed in a constant temperature water tank kept at 23±1° C. to their emsistermun. Eighteen hours later, the animals were taken out, and incised at the abdomen. The stomach was cut open and examined microscopically. One hour before applying stress to the animals by water immersion, each of the test drugs was orally administered. The total length of ulcers generated in the stomach body was compared with that in a control, and the rate of inhibiting ulcer formation was calculated.

ulcers = assay: Pharmacological Test 3: indomethacine-induced ulcer in rats, drug oral, total ulcer length; assay type: in vivo, STD Wistar male rats; details: Rattus norvegicus, 10 minutes before indomethacine 40 mg/kg s.c., 7 hours, n=10 rats, read-out: Percent inhibition (total length of ulcers)
Experimental: Pharmacological tests were conducted on the above-mentioned known anti-ulcerogenic agents, the typical known anti-ulcerogenic compound of formula (A)-1 given hereinabove, and the compounds of formula (I) in accordance with this invention in order to examine their anti-ulcerogenic activities. In these pharmacological tests, the numbers attached to the compounds of this invention correspond to the numbers of Production Examples given hereinbelow. STD Wistar male rats (body weight 170 to 200 g) were caused to fast for 24 hours, and indomethacine dissolved in a 5% aqueous solution of sodium hydrogen carbonate was subcutaneously administered in a dose of 40 mg/kg. Seven hours later, the animals were autopsied. Each of the test drugs was administered orally to the stomach 10 minutes before administration of indomethacine. The total length of ulcers formed was compared with that in a control, and the percent inhibition was calculated.

Row | Compound | inhibition in vivo at 300 mg/kg (ulcer) | inhibition in vivo at 300 mg/kg [1] | inhibition in vivo at 200 mg/kg (ulcers) | inhibition in vivo at 300 mg/kg (ulcers)
1 | CCC1CN(C(=O)CCC=C(C)CCC=C(C)CCC=C(C)CCC=C(C)C)CCN1 (stereo not drawn) [Compound (14)] | 71.5% | 70.2% | 73.5% | 
2 | CC(C)=CCC/C(C)=C/CC/C(C)=C/CC/C(C)=C/CCC(=O)N1CCN(CC=C(C)C)CC1 [Compound (9), N-prenyl-N'-geranylgeranylacetyl piperazine] | 64% | 59% | 57.2% | 
3 | CC(C)=CCCC(C)=CCCC(C)=CCCC(=O)N1CCN(C)CC1 [Comparative compound of formula (A)-1, reference compound] | 53.3% | 45.6% |  | 51.2%
4 | CCCCN1CCN(C(=O)CC/C=C(\C)CC/C=C(\C)CC/C=C(\C)CCC=C(C)C)CC1 [Compound (6), N-butyl-N'-geranylgeranylacetyl piperazine] | 66.5% | 60.6% | 55.3% | 
5 | NC[C@H]1CC[C@H](C(=O)Oc2ccc(CCC(=O)O)cc2)CC1 [Cetraxate hydrochloride, 4-(2-carboxyethyl)-phenyl-trans-4-aminomethylcyclohexanecarboxylate hydrochloride, reference compound] | 27.8% | 31.6% |  | 25.3%
6 | CC(C)=CCC/C(C)=C/CC/C(C)=C/CC/C(C)=C/CCC(=O)N1CCN(C(C)C)CC1 [Compound (5), N-isopropyl-N'-geranylgeranylacetyl piperazine] | 66.5% | 64% | 60% | 
7 | CC1(C)[C@@H](OC(=O)CCC(=O)O)CC[C@]2(C)[C@H]3C(=O)C=C4[C@@H]5C[C@@](C)(C(=O)O)CC[C@]5(C)CC[C@@]4(C)[C@]3(C)CC[C@@H]12 [Carbenoxolone sodium, glycyrrhetinic acid hydrogen succinate, disodium salt, reference compound] | 60.5% | 8.6% |  | 63.6%
8 | CC(C)=CCC/C(C)=C/CC/C(C)=C/CC/C(C)=C/CCC(=O)N1CCNCC1 [Compound (1), N-geranylgeranylacetyl piperazine] | 68.2% | 73.8% | 66% | 
9 | CC(C)=CCCC(C)=CCCC(C)=CCCC(C)=CCCC(=O)N1CCNC(C)C1 (stereo not drawn) [Compound (13), methyl-N-geranylgeranylacetyl piperazine] | 77.1% | 82.8% | 79.2% | 
10 | CC(C)=CCCC(C)=CCCC(C)=CCCC(=O)OC/C=C(\C)CCC=C(C)C [Gefarnate, geranyl farnesylacetate, reference compound] | 30% | 23.6% |  | 33.1%
11 | CC(C)=CCC/C(C)=C/CC/C(C)=C/CC/C(C)=C/CCC(=O)N1C(C)CNCC1C (stereo not drawn) [Compound (15), 2,6-dimethyl-N-geranylgeranylacetyl piperazine] | 80% | 80% | 77.2% | 
12 | CCN1CCN(C(=O)CC/C=C(\C)CC/C=C(\C)CC/C=C(\C)CCC=C(C)C)CC1 [Compound (3), N-ethyl-N'-geranylgeranylacetyl piperazine] | 70.1% | 68.7% | 62.1% | 
13 | CCCCCN1CCN(C(=O)CC/C=C(\C)CC/C=C(\C)CC/C=C(\C)CCC=C(C)C)CC1 [Compound (7), N-n-amyl-N'-geranylgeranylacetyl piperazine] | 67.3% | 64.6% | 65.3% | 
14 | CC(C)=CCC/C(C)=C/CC/C(C)=C/CC/C(C)=C/CCC(=O)N1CCN(Cc2ccccc2)CC1 [Compound (12), N-benzyl-N'-geranylgeranylacetyl piperazine] | 64.9% | 61.1% | 62.1% | 
15 | C=CCN1CCN(C(=O)CC/C=C(\C)CC/C=C(\C)CC/C=C(\C)CCC=C(C)C)CC1 [Compound (8), N-allyl-N'-geranylgeranylacetyl piperazine] | 70.5% | 68.5% | 72.5% | 
16 | CC(C)=CCC/C(C)=C/CC/C(C)=C/CC/C(C)=C/CCC(=O)N1CCN(C)CC1 [Compound (2), N-methyl-N'-geranylgeranylacetyl piperazine] | 74.5% | 76% | 75.3% | 
17 | CCCN1CCN(C(=O)CC/C=C(\C)CC/C=C(\C)CC/C=C(\C)CCC=C(C)C)CC1 [Compound (4), N-n-propyl-N'-geranylgeranylacetyl piperazine] | 64.7% | 69% | 56.5% | 
18 | CC(C)=CCC/C(C)=C/CC/C(C)=C/CC/C(C)=C/CCC(=O)N1CCN(CCCBr)CC1 [Compound (11), N-3-bromopropyl-N'-geranylgeranylacetyl piperazine] | 66.8% | 65.3% | 65.6% | 
19 | CC(C)=CCC/C(C)=C/CC/C(C)=C/CC/C(C)=C/CCC(=O)N1CCN(CCCCCl)CC1 [Compound (10), N-4-chlorobutyl-N'-geranylgeranylacetyl piperazine] | 65.3% | 67.3% | 70.2% | 
